How the values were obtained:
[1] = test system: HCT116 p53+/+; assay: MTT cytotoxicity assay (Example 2); assay type: cell-based
From the text: (§1) Human breast cancer cell lines MDA-MB-435 and SkBr-3 were purchased from the American Type Culture Collection (Manassas, Va.). The HCT116 P53+/+ and HCT116 P53−/− cell lines were kindly provided by Dr. Bert Vogelstein (Johns Hopkins Medical Institutions, Baltimore, Md.). The HEY human ovarian carcinoma cell line was kindly provided by Dr. Louis Dubeau (University of Southern California Norris Cancer Center). Cells were maintained as monolayer cultures in media supplemented with 10% fetal bovine serum (Gemini-Bioproducts, Woodland, Calif.) and 2 mmo/lL-glutamine at 37° C. in a humidified atmosphere of 5% C02. To remove the adherent cells from the flask for passaging and counting, cells were washed with PBS without calcium or magnesium, incubated with a small volume of 0.25% trypsin-EDTA solution (Sigma-Aldrich, St. Louis, Mo.) for 5-10 min, and washed with culture medium and centrifuged. All experiments were performed using cells in exponential growth stage. Cells were routinely checked for mycoplasma contamination using a PCR-based assay (Stratagene, Cambridge, UK).
(§2) Stock solutions (10 mM) of all compounds were prepared in DMSO and stored at −20° C. Further dilutions were made fresh in cell-culture media just prior to cell treatment.
(§3) Cytotoxicity was assessed by a 3-(4,5-dimethylthiazol-2-yl)-2,5-diphenyltetrazolium bromide (MTT) assay as previously described.^23 Cells were seeded in 96-well plates and allowed to attach overnight. Cells were subsequently treated with continuous exposure to the corresponding drug for 72 h. An MTT solution (at a final concentration of 0.5 mg/ml) was added to each well, and cells were incubated for 4 h at 37° C. After removal of the medium, DMSO was added and the absorbance was read at 570 nm. All assays were performed in triplicate. The IC50 was determined for each drug from a plot of log (drug concentration) versus percentage of cells killed.

[2] = test system: HCT116 p53−/−; assay: MTT cytotoxicity assay (Example 2); assay type: cell-based
From the text: as §1, §2, §3

[3] = test system: MDA-MB-435; assay: MTT cytotoxicity assay (Example 2); assay type: cell-based; conditions: Homo sapiens, MDA-MB-435, 72 h
From the text: as §1, §2, §3

[4] = test system: HEY; assay: MTT cytotoxicity assay (Example 2); assay type: cell-based, human; conditions: 72 h
From the text: as §1, §2, §3

[5] = test system: SkBr-3; assay: MTT cytotoxicity assay (Example 2); assay type: cell-based, human
From the text: as §1, §2, §3

[6] = test system: NIH3T3; assay: MTT cytotoxicity assay (Example 1); assay type: cell-based, mouse
From the text: (§4) Human breast cancer cells MDA-MB-435 were purchased from the American Type Culture Collection (Manassas, Va.). The HCT116 p53+/+ and HCT116 p53−/− cells were kindly provided by Dr. Bert Vogelstein (Johns Hopkins Medical Institutions, Baltimore, Md.). The human ovarian carcinoma cell line (HEY) which is naturally resistant to cisplatin, was kindly provided by Dr. Louis Dubeau, University of Southern California (USC) Norris Cancer Center, and NIH3T3 normal mouse fibroblast cells were kindly provided by Dr. Michael Press from USC. HEY and NIH3T3 cells were maintained as monolayer cultures in RPMI, HCT 116 cells in McCoy1s5A media and MDA-MB 435 in DMEM. Media were purchased from (Mediatech, Virginia) and supplemented with 10% fetal bovine serum (Gemini-Bioproducts, Woodland, Calif.), 2 mM L-glutamine and 5% Penicillin/streptomycin from Bio whittaker were purchased from VWR. Cells were incubated at 37° C. in a humidified atmosphere of 5% CO2. To remove the adherent cells from the flask for passaging and counting, cells were washed with PBS without calcium or magnesium, incubated with a small volume of 0.25% trypsin-EDTA solution (Sigma-Aldrich, St. Louis, Mo.) for 5-10 min, and washed with culture medium and centrifuged. All experiments were performed using cells at exponential growth stage. Cells were routinely checked for mycoplasma contamination using a PCR-based assay (Stratagene, Tex., USA).
(§5) Stock solutions (10 mM) of all compounds were prepared in DMSO and stored at −20° C. Further dilutions were made fresh in PBS or cell-culture media right before cell treatment.
(§6) Cytotoxicity was assessed by a 3-(4,s-dimethylthiazol-2-yl)-2,5-diphenyltetrazolium bromide (MTT) assay as previously described.^24 Briefly, cells were seeded in 96-well microtiter plates and allowed to attach overnight. Cells were subsequently treated with continuous exposure to the corresponding drug for 72 h. A MTT solution (at a final concentration of 0.5 mglml) was added to each well, and cells were incubated for 4 h at 37° C. After removal of the medium, DMSO was added and the absorbance was read at 570 nm. All assays were done in triplicate. The IC50 was then determined for each drug from a plot of log (drug concentration) versus percentage of cells killed.

[7] = test system: HCT p53+/+ cells; assay: Colony formation assay; assay type: cell-based; conditions: several doses
Description: (§7) Colony formation assays were also performed to confirm the activity of these compounds as described.^1,25 Briefly, cells were plated in 6-well plates at a density of 500 cells/well and allowed to attach. The next day, serial dilutions of the corresponding compounds were added and allowed to incubate for 24 h. After exposure, cells were washed in PBS and cultured in drug-free media until colonies were formed (8-10 days). Cells were subsequently washed, fixed with a 1% glutaraldehyde solution for 30 min, and stained with a solution of crystal violet (2%) for 30 min. After staining, cells were thoroughly washed with water. Colonies were imaged on the ChemiDoc Imaging System (Bio-Rad) and counted using the Quantity One quantitation software package (Bio-Rad). The data reported represent means of at least three independent experiments.

[8] = test system: HCT116 p53+/+; assay: MTT cytotoxicity assay (Example 1); assay type: cell-based; conditions: MTT, 72 h
From the text: as §4, §5, §6

[9] = test system: HCT116 p53−/−; assay: MTT cytotoxicity assay (Example 1); assay type: cell-based; conditions: MTT, 72 h
From the text: as §4, §5, §6

[10] = test system: HEY cells; assay: Colony formation assay; assay type: cell-based, human; conditions: several doses
Description: as §7

[11] = test system: panel of cancer cell lines; assay: MTT cytotoxicity, panel of cancer cell lines (Example 2); assay type: cell-based
From the text: as §1, §2, §3

[12] = MTT, 72 h, read-out: IC50 Hct116 p53+/+
[13] = Homo sapiens, HCT-116, 72 h, MTT, 72 h, read-out: IC50 Hct116 p53+/+

| SMILES | IC50 ([2]; Homo sapiens, HCT-116, 72 h) | IC50 [3] | IC50 ([5]; Homo sapiens, SK-BR-3, 72 h) | IC50 [1, 13] | IC50 ([4]; Homo sapiens) | also measured |
| --- | --- | --- | --- | --- | --- | --- |
| Cc1cc(C)nc(NC(=N)Nc2cc(Oc3ccccc3)ccc2Cl)n1 [1-SMD6] | 1500 ± 100 nM | 8000 ± 500 nM | < 10000 nM |  |  | IC50 [1, 12]: 1000 ± 700 nM; IC50 [4]: 3500 ± 1600 nM; IC50 ([5]; 72 h): 5000 ± 1000 nM |
| COC(=O)/C=C1/N=C(Nc2nc3ccccc3s2)NC1=O [5-SMD18] | 6500 nM | 7000 ± 1100 nM |  | < 10000 nM | < 10000 nM | IC50 [1, 12]: 7200 ± 100 nM; IC50 [4]: 7200 ± 200 nM; IC50 ([5]; 72 h): 2500 ± 800 nM |
| COc1cccc(NCc2ccc(O)c3ncccc23)c1 [19-SMD58-14] | 2100 ± 100 nM | 5000 ± 900 nM | 2900 ± 300 nM | 1300 ± 900 nM | 1900 nM |  |
| Oc1ccc(CN2CCN(c3ccccn3)CC2)c2cccnc12 [21-SMD58-19] | 2200 ± 100 nM | 2700 nM | 3000 ± 1000 nM | 2600 ± 700 nM | 2800 ± 600 nM |  |
| CCC(=O)NC(c1ccc(OC)cc1)c1cc([N+](=O)[O-])c2cccnc2c1O (centres unmarked) [25-SMD58-26] | 7100 ± 1100 nM | 7500 nM | > 10000 nM | 6800 ± 200 nM | 3200 nM |  |
| Oc1ccc(CNc2ccc(C(F)(F)F)cc2)c2cccnc12 [18-SMD58-13] | 2000 ± 100 nM | 5200 ± 400 nM | 2800 ± 500 nM | 1600 ± 100 nM | 1200 ± 100 nM |  |
| Oc1ccc(Br)cc1/C=N/Nc1nc2nonc2nc1Nc1ccc(F)cc1 [Compound 2] |  |  |  |  |  | IC50 ([6]; 72 h): 6000 ± 1400 nM; IC50 ([6]; Mus musculus, NIH3T3, 72 h): 8000 nM; toxic effect in colony formation assay [7]: significant toxic effect; IC50 ([8]; Homo sapiens, HCT-116, 72 h): < 3000 nM; IC50 [8]: 1500 ± 1000 nM; IC50 ([9]; Homo sapiens, HCT-116, 72 h): < 3000 nM; IC50 [9]: 1800 ± 700 nM; toxic effect in colony formation assay [10]: significant toxic effect |
| CC(C)(C)c1cc(=O)[nH]c(Nc2nc3ccccc3s2)n1 [9-SMD18-15-BAS 125346 60] | 9900 nM | 7500 nM | > 10000 nM | 9900 nM |  |  |
| Cc1cc(C)nc(NC(=N)Nc2ccc(Cl)cc2C(=O)c2ccccc2)n1 [2-SMD6-4] | 2100 ± 100 nM | > 10000 nM | 7400 ± 500 nM | 2200 ± 800 nM | 2500 ± 400 nM | IC50 ([11]; certain cancer cell lines): < 3000 nM |
| Cc1[nH]c(Nc2nc3ccccc3s2)nc(=O)c1Cc1ccccc1 [7-SMD18-8] | > 10000 nM | > 10000 nM | > 10000 nM | 10000 nM |  | IC50 [1, 12]: > 10000 nM; IC50 ([2]; 72 h): 7200 nM |
| CC(C)c1cc(=O)[nH]c(Nc2nc3ccccc3s2)n1 [8-SMD18-14] | 3600 ± 1800 nM | > 10000 nM | > 10000 nM | 4500 ± 1500 nM |  |  |
| Cc1cc(C)nc(NC(=N)Nc2ccc(Cl)c(C(F)(F)F)c2)n1 [4-SMD6-8] | 2100 ± 500 nM |  | 2500 ± 500 nM | 1600 ± 400 nM | 2200 ± 300 nM | IC50 ([11]; certain cancer cell lines): < 3000 nM |
| Cc1cccc(NCc2ccc(O)c3ncccc23)n1 [24-SMD58-23] | 1600 ± 300 nM | 2300 nM | 3600 ± 500 nM | 2800 ± 100 nM | 2300 ± 300 nM |  |
| CCOC(=O)C1CCN(Cc2ccc(O)c3ncccc23)CC1 [10-SMD58] | 300 nM | 2400 ± 1500 nM |  |  |  | IC50 ([11]; five cancer cell lines): < 3500 nM; IC50 ([1]; Homo sapiens, HCT-116, p53+/+ cell line, read-out: IC50): < 1000 nM; IC50 [4]: 500 nM; IC50 ([5]; 72 h): 3500 ± 500 nM |

From patent publication US8445677B2, “Substituted pyrimidyl guanidine derivatives having anticancer activity” (University of Southern California, priority 2008, dated 2013)
